The values below come from patent US8444953B2, “Symmetric and asymmetric halogen-containing metallocarboranylporphyrins and uses thereof” (Brookhaven Science Associates, LLC, priority 2007, dated 2013).

Marks after values point to notes of the source that are not given here.

For data set [1], the system named is BALB/c mice bearing subcutaneously implanted EMT-6 mammary carcinomas. Nature of the data set: Biodistribution of porphyrin XV in mice bearing EMT-6 carcinomas (boron analyses of tissues). The data set is classed as in vivo. The following applies: 220 mg/kg (43 mg B/kg), 6 i.p. injections over 2 days, median (range), n = 5. How it is done: Porphyrin compound (XV) was emulsified in 9% Cremophor EL and 18% propylene glycol in saline.
To prepare a solution of ˜3.7 mg/mL porphyrin in 9% Cremophor EL (CRM) and 18% propylene glycol (PRG), the porphyrin was dissolved in tetrahydrofuran (THF) (1.5% of the total volume) and then heated to 40° C. for 15 min. CRM (9% of total volume) was then added and the mixture was heated to 60° C., for 2 hours, which removed most of the THF. After cooling to room temperature, PRG (18% of total volume) was added, followed by slow dropwise addition of saline (71.5% of total volume) with rapid stirring. The solution was degassed by stirring under vacuum (˜30 mm Hg) for 30-60 min and then filtered (Millipore, 8 μm).
BALB/c mice bearing subcutaneously implanted EMT-6 mammary carcinomas implanted on the dorsal thorax were given a total dose of 220 milligrams porphyrin compound XV per kilogram body weight (43 mg B/kg). At one and two days after the last injection, mice were euthanized, and tumor, blood, brain, and liver were removed for boron analyses. The blood was first analyzed for hematologic parameters that indicate toxicity before it was analyzed for boron.

Data set [2] can be described thus: Weight changes and hematologic parameters that indicate toxicity. It is filed as in vivo, mice. The conditions noted are these: for % Weight change / Granulocytes / Lymphocytes / Platelets: 220 mg/kg (43 mg B/kg), median (range).
Setting [3] is: mice, 1 day after last injection.
Where [4] appears, read: mice, 2 days after last injection.

For “Copper (II) 5,10,15-tris[3-o-carboranylmethoxyphenyl]-20-[2,6-difluorophenyl]porphyrin [Porphyrin XV]”, in data set [1] (1 day after last injection), the “Average boron concentration, Blood” value is 47 (38-121) μg B/g; the “Average boron concentration, Brain” value is reported as 1.0 (0.6-1.7) μg B/g; the “Average boron concentration, EMT-6 Tumor” value is listed as 66 (24-153) μg B/g; the “Average boron concentration, Liver” value is given as 300 (245-319) μg B/g. Further, the “Average boron concentration, Skin (pinna)” value in data set [1] (1 day after last injection) is 5.9 (4.9-9.9) μg B/g. In data set [1] (2 days after last injection), the “Average boron concentration, Blood” value is given as 0.4 (0.3-4.5) μg B/g; the “Average boron concentration, Brain” value is recorded as 0.1 (0-0.2) μg B/g; the “Average boron concentration, EMT-6 Tumor” value is given as 88 (44-115) μg B/g; the “Average boron concentration, Liver” value is given as 375 (364-419) μg B/g. In data set [1] (2 days after last injection), the “Average boron concentration, Skin (pinna)” value was 6.6 (3.6-8.1) μg B/g. Also, the “median % weight loss (in words)” value in data set [2] (mice receiving porphyrin, 220 mg/kg) was “not significant”. In addition, in data set [2] (setting [3]), the “% Weight change” value is −0.6 (−3.4-3.3) %, the Granulocytes was 52 (49.8-65.1), the Lymphocytes is recorded as 44.3 (31.8-46.5)^b and the Platelets was 374 (158-879)^a. In addition, in data set [2] (setting [4]), the “% Weight change” value is recorded as −0.2 (−3.3-3.8) %, the Granulocytes is recorded as 54.0 (52.4-57.8), the Lymphocytes was 42.6 (38.4-44.1) and the Platelets is 478 (91-661)^b. Moreover, the “toxicity (in words)” value in data set [2] (mice, 220 mg/kg, weight and hematologic parameters) is “quite mild and transient”.
